As usually defined, the IC50 is the concentration that gives 50% inhibition. A higher IC50 goes with weaker potency.

32 compounds from ChEMBL document CHEMBL1149446, “Synthesis and antiprotozoal activity of some new synthetic substituted quinoxalines” (Bioorg Med Chem Lett, 2006) can be followed below.

Assay [1] deals with Trypanosoma brucei brucei. Nature of the assay: Antiprotozoal activity against Trypanosoma brucei brucei GVR35. Type of assay: functional.
For the next assay, the system named is Leishmania donovani. As to the kind of experiment: Antiprotozoal activity against Leishmania donovani MHOM/ET/L82/LV9. It is filed as functional, organism-based.
The subject of another assay is Trichomonas vaginalis. Nature of the assay: Antiprotozoal activity against Trichomonas vaginalis CMP. Type of assay: functional, organism-based.

Bounds are passed on as bounds.

The compound `CCCCCCC(=O)Nc1ccc2nccnc2c1Br` came in with an MAC in assay [1] greater than 300 µM. Also, the IC50 with Leishmania donovani and in the assay on Trichomonas vaginalis was greater than 300 µM in each case.
On to `O=C(Nc1ccc2nccnc2c1Br)c1ccc(C(=O)c2ccccc2)cc1`, for which the MAC in assay [1] was greater than 300 µM. For the same compound, the IC50 in the assay on Leishmania donovani and in the assay with Trichomonas vaginalis was greater than 300 µM each time.
`c1ccc2c(CNc3ccc4nccnc4c3)ccnc2c1` registered an MAC in assay [1] greater than 300 µM. Further, the IC50 in the assay on Leishmania donovani is 34 µM; in the assay with Trichomonas vaginalis, greater than 300 µM.
For `CCc1ccc(OCc2ccccc2C(=O)Nc2ccc3nc(-c4ccccc4)c(-c4ccccc4)nc3c2)cc1` the same measures were greater than 300 µM, greater than 300 µM and greater than 300 µM.
For `CCCCCCCCCCCCC(=O)Nc1ccc2nccnc2c1Br` the same measures were greater than 300 µM, greater than 300 µM and greater than 300 µM.
In assay [1], `CCCCCCCCCCCCCCCC(=O)Nc1ccc2nccnc2c1Br` registered an MAC greater than 300 µM. Also, the IC50 in the assay on Leishmania donovani and with Trichomonas vaginalis was greater than 300 µM throughout.
For `CCc1ccc(OCc2ccccc2C(=O)Nc2ccc3nccnc3c2)cc1`, the MAC in assay [1] was found to be 150 µM. Moreover, the IC50 in the assay with Leishmania donovani was 18.5 µM; with Trichomonas vaginalis it was 126 µM.
In the case of `CCc1ccc(OCc2ccccc2C(=O)Nc2ccc3nc(C)c(C)nc3c2)cc1`, the MAC in assay [1] was determined as 200 µM. The IC50 in the assay with Leishmania donovani was 8.2 µM; in the assay on Trichomonas vaginalis, greater than 300 µM.
With `CCc1ccc(OCc2ccccc2NC(=O)c2ccc3nc(-c4ccccc4)c(-c4ccccc4)nc3c2)cc1`, the MAC in assay [1] is greater than 300 µM. For the same compound, the IC50 in the assay on Leishmania donovani and in the assay on Trichomonas vaginalis was greater than 300 µM each time.
Turning to `c1cnc2cc(NCc3ccc4c(c3)OCO4)ccc2n1`, the MAC in assay [1] is greater than 300 µM. Besides, the IC50 with Leishmania donovani is 79.5 µM; in the assay with Trichomonas vaginalis, greater than 300 µM.
The corresponding values for `CCn1c2ccccc2c2cc(NC(=O)c3ccc4nc(-c5ccccc5)c(-c5ccccc5)nc4c3)ccc21` are greater than 300 µM, greater than 300 µM and greater than 300 µM.
The corresponding values for `COc1cc2oc3ccccc3c2cc1NC(=O)c1ccc2nc(-c3ccccc3)c(-c3ccccc3)nc2c1` are greater than 300 µM, greater than 300 µM and greater than 300 µM.
For `CCc1ccc(OCc2ccccc2NC(=O)c2ccc3nccnc3c2)cc1` the same measures were 200 µM, 18.4 µM and greater than 300 µM.
In assay [1], `CCCCCCC(=O)Nc1ccc2nccnc2c1` displayed an MAC greater than 300 µM. Also, the results for the IC50 in the assay with Leishmania donovani and in the assay with Trichomonas vaginalis were 117 µM and greater than 300 µM, respectively.
For `COc1cc2oc3ccccc3c2cc1NC(=O)c1ccc2nccnc2c1` the same measures were greater than 300 µM, greater than 300 µM and greater than 300 µM.
Take `CCn1c2ccccc2c2cc(N(C(=O)c3ccc4nc(-c5ccccc5)c(-c5ccccc5)nc4c3)C(=O)c3ccc4nc(-c5ccccc5)c(-c5ccccc5)nc4c3)ccc21`: the MAC in assay [1] was greater than 300 µM. Besides, the IC50 with Leishmania donovani and in the assay on Trichomonas vaginalis was greater than 300 µM throughout.
In assay [1], `CCc1ccc(OCc2ccccc2NC(=O)c2ccc3nc(C)cnc3c2)cc1` registered an MAC greater than 300 µM. Moreover, the IC50 in the assay with Leishmania donovani and in the assay with Trichomonas vaginalis was greater than 300 µM throughout.
`O=C(Nc1cccc2c1oc1ccccc12)c1ccc2nc(-c3ccccc3)c(-c3ccccc3)nc2c1` had an MAC in assay [1] greater than 300 µM. In addition, the IC50 in the assay with Leishmania donovani and in the assay with Trichomonas vaginalis was greater than 300 µM in each case.
As to `CCc1ccc(OCc2ccccc2NC(=O)c2ccc3nc(C)c(C)nc3c2)cc1`, in assay [1], the MAC was greater than 300 µM. Further, the 50% inhibitory concentration (IC50) in the assay with Leishmania donovani and in the assay with Trichomonas vaginalis was greater than 300 µM in each case.
`CCc1ccc(OCc2ccccc2C(=O)Nc2ccc3nc(C)cnc3c2)cc1` displayed an MAC in assay [1] of 200 µM. The IC50 was 12.5 µM with Leishmania donovani and greater than 300 µM in the assay on Trichomonas vaginalis.
For the compound `O=[N+]([O-])c1ccc(CNc2ccc3nccnc3c2)cc1`, in assay [1], the MAC is greater than 300 µM. Besides, the IC50 in the assay with Leishmania donovani was greater than 300 µM; in the assay on Trichomonas vaginalis, 191 µM.
On to `c1ccc(CNc2ccc3nccnc3c2)cc1`, for which the MAC in assay [1] was greater than 300 µM. Also, the concentration for half-maximal inhibition (IC50) in the assay with Leishmania donovani amounted to 92.4 µM; with Trichomonas vaginalis, 264 µM.
On to `CCn1c2ccccc2c2cc(NC(=O)c3ccc4nccnc4c3)ccc21`, for which the MAC in assay [1] worked out at 200 µM. The 50% inhibitory concentration (IC50) with Leishmania donovani and in the assay on Trichomonas vaginalis was greater than 300 µM each time.
`O=C(Nc1ccc2nccnc2c1Br)c1ccc2ccccc2n1` showed an MAC in assay [1] greater than 300 µM. For the same compound, the IC50 in the assay on Leishmania donovani and in the assay on Trichomonas vaginalis was greater than 300 µM in each case.
`Cc1nc2ccc(NC(=O)C34CC5CC(CC(C5)C3)C4)cc2nc1C`: in assay [1], the MAC is greater than 300 µM. In addition, the IC50 in the assay on Leishmania donovani and with Trichomonas vaginalis was greater than 300 µM in each case.
In turn, `COc1cc2oc3ccccc3c2cc1N(C(=O)c1ccc2nc(-c3ccccc3)c(-c3ccccc3)nc2c1)C(=O)c1ccc2nc(-c3ccccc3)c(-c3ccccc3)nc2c1` registered an MAC in assay [1] greater than 300 µM. Moreover, the IC50 in the assay with Leishmania donovani and in the assay on Trichomonas vaginalis was greater than 300 µM throughout.
The compound `O=C(Nc1ccc2nccnc2c1)c1ccc(Br)o1` came in with an MAC in assay [1] greater than 300 µM. Besides, the IC50 with Leishmania donovani and in the assay with Trichomonas vaginalis was greater than 300 µM each time.
In the case of `CCCCCCCCCCCCCCCC(=O)Nc1ccc2nc(C)c(C)nc2c1`, in assay [1], the MAC is greater than 300 µM. Besides, the half-inhibitory concentration (IC50) in the assay with Leishmania donovani and in the assay with Trichomonas vaginalis was greater than 300 µM in each case.
In assay [1], `CCCCCNc1ccc2nccnc2c1` yielded an MAC greater than 300 µM. Moreover, the values for the half-maximal inhibitory concentration (IC50) with Leishmania donovani and in the assay on Trichomonas vaginalis were 46.3 µM and 243 µM, respectively.
`Nc1nc(N)nc(Nc2ccc([As]3SCC(CO)S3)cc2)n1` (stereo not given) [MELARSOPROL] came in with an MAC in assay [1] of 0.1 µM.
Take `Cc1ncc([N+](=O)[O-])n1CCO` [METRONIDAZOLE]: the IC50 in the assay on Trichomonas vaginalis stood at 5.8 µM.
In the assay on Leishmania donovani, `CCCCCCCCCCCCCCCCOP(=O)([O-])OCC[N+](C)(C)C` [MILTEFOSINE] displayed an IC50 of 7.3 µM.
